Common to all, as to format: in vivo
Test [1] concerns fall armyworm larvae (Spodoptera frugiperda). The experiment in a line: Spodoptera frugiperda spray test. An excerpt:
(§1) Emulsifier: alkylaryl polyglycol ether

Test [2] concerns mustard beetle larvae (Phaedon cochleariae). The test is described as follows: Phaedon cochleariae spray test. From the text: The fermentation product is referred to in the examples below as NRRL B-50550.
Solvent: 78.0 parts by weight of acetone

Test [3] deals with green peach aphid (Myzus persicae). The test is described as follows: Myzus persicae spray test (Chinese cabbage leaf disks).
From the text: as §1
100% means all aphids have been killed; 0% means none of the aphids have been killed.

Test [4] concerns two spotted spidermite (Tetranychus urticae). The experiment in a line: Tetranychus urticae spray test, OP-resistant.
From the text: as §1

The test system of test [5] is green peach aphid (Myzus persicae). The experiment in a line: Myzus persicae spray test (pepper leaves). The conditions noted are these: 0.5 ppm.

As for `CC1(C)C(C=C(Cl)Cl)C1C(=O)OC(C#N)c1ccc(F)c(Oc2ccccc2)c1` (stereo not drawn) [β-Cyfluthrin, beta-Cyfluthrin], the “Efficacy in % after 6d” value in test [1] (1.6 ppm), in test [2] (1.6 ppm) and in test [3] (1.6 ppm) was 0% in each case.

As to `CN/C(=N\[N+](=O)[O-])NCc1cnc(Cl)s1` [Clothianidin], the “Efficacy in % after 6d” value in test [3] (0.32 ppm) is 0%.

With Spinosad, the “Efficacy in % after 6d” value in test [1] (0.64 ppm) is 0%. In test [2] (80 ppm), the “Efficacy in % after 2d” value is listed as 50%.

As to `O=[N+]([O-])NC1=NCCN1Cc1ccc(Cl)nc1` [Imidacloprid], the “Efficacy in % after 6d” value in test [4] (2 ppm) was found to be 0%.

For `CNC(=O)Oc1cc(C)c(SC)c(C)c1` [Methiocarb], the “Efficacy in % after 6d” value in test [3] (2000 ppm) was 0%.

As for `CC(c1ccc(C(F)(F)F)nc1)S(C)(=O)=NC#N` (stereo not shown) [Sulfoxaflor], the “Efficacy in % after 1d” value in test [3] (0.64 ppm) is recorded as 0%.

Regarding `Cc1cc(C(F)(C(F)(F)F)C(F)(F)F)ccc1NC(=O)c1cccc(I)c1C(=O)NC(C)(C)CS(C)(=O)=O` [Flubendiamide], in test [1] (3.2 ppm), the “Efficacy in % after 2d” value is listed as 33%.

For `CNC(=O)c1cc(Cl)cc(C)c1NC(=O)c1cc(Br)nn1-c1ncccc1Cl` [Chlorantraniliprole], the “Efficacy in % after 6d” value in test [4] (16 ppm) was 0%. In test [3] (3.2 ppm), the “Efficacy in % after 1d” value is on record as 0%.

Regarding `Cc1cc(F)c(-n2nc(C(F)(F)F)nc2N)cc1[S+]([O-])CC(F)(F)F` (stereo not shown) [1-{2-fluoro-4-methyl-5-[(2,2,2-trifluorethyl)sulfinyl]phenyl}-3-(trifluoromethyl)-1H-1,2,4-triazol-5-amine], the “Efficacy in % after 6d” value in test [4] (3.2 ppm) is 0%.

In the case of `CNC(=O)c1cc(C#N)cc(C)c1NC(=O)c1cc(Br)nn1-c1ncccc1Cl` [Cyantraniliprole], the “Efficacy in % after 6d” value in test [4] (80 ppm), in test [2] (0.64 ppm), in test [3] (0.64 ppm) and in test [3] (3.2 ppm) was 0% each time. The “Efficacy in % after 1d” value in test [3] (16 ppm) turned out to be 0%.

With `CS/C(C)=N\OC(=O)N(C)SN(C)C(=O)O/N=C(\C)SC` [Thiodicarb], the “Efficacy in % after 2d” value in test [1] (40 ppm) was found to be 0%.

Take Spinetoram: the “Efficacy in % after 2d” value in test [1] (0.64 ppm) amounted to 0%.

For `Cc1c(F)c(F)c(COC(=O)[C@@H]2[C@H](/C=C(\Cl)C(F)(F)F)C2(C)C)c(F)c1F` (racemic) [Tefluthrin], the “Efficacy in % after 2d” value in test [2] (40 ppm) came to 0%.

As to `N#Cc1nn(-c2c(Cl)cc(C(F)(F)F)cc2Cl)c(N)c1[S+]([O-])C(F)(F)F` (stereo not shown) [Fipronil], in test [1] (16 ppm), the “Efficacy in % after 6d” value was determined as 0%.

Consider `N#C/N=C1\SCCN1Cc1ccc(Cl)nc1` [Thiacloprid], for which, in test [5], the “Efficacy in % after 2d” value was 40%, the “Efficacy in % after 3d” value stood at 20% and the “Efficacy in % after 7d” value was 10%.

Regarding `CNC(=O)c1cc(C#N)cc(C)c1NC(=O)c1cc(Cn2nnc(C(F)(F)F)n2)nn1-c1ncccc1Cl` [1-(3-chloropyridin-2-yl)-N-[4-cyano-2-methyl-6-(methylcarbamoyl)phenyl]-3-{[5-(trifluoromethyl)-2H-tetrazol-2-yl]methyl}-1H-pyrazole-5-carboxamide], the “Efficacy in % after 6d” value in test [1] (0.64 ppm) is given as 33%; in test [2] (0.128 ppm), 0%. In test [2] (0.64 ppm), the “Efficacy in % after 2d” value worked out at 50%.

Values taken from patent publication US9192166B2, “Compositions comprising a streptomyces-based biological control agent and an insecticide” (BAYER […], priority 2013, dated 2015).
